Source: article PMC2879362, “Design of Group IIA Secreted/Synovial Phospholipase A2 Inhibitors: An Oxadiazolone Derivative Suppresses Chondrocyte Prostaglandin E2 Secretion” (PLoS ONE, 2010)
Entries after “also recorded” stand apart in the source; their conditions may differ.

Assays:
iNOS = experiment: Western blot of iNOS protein level in IL-1β-treated chondrocytes; format: cell-based, rabbit; details: C8 0.31-1.24 µM in DMEM, IL-1β 20 h
Experimental: As expected, COX-1 protein was detectable but COX-2 and iNOS proteins were undetectable in untreated control conditions (Fig. 6A). […] Consequently, the protein ratio of COX-1 to COX-2 was not modified by C8 (Fig. 6B). […] Cell lysates were centrifuged for 15 min at 14000 rpm at 4°C and supernatants were collected. Protein concentrations were determined by the Bradford method by use of the Protein Assay dye reagent (Bio-Rad). Protein extracts (20 µg) were size-separated by SDS-PAGE in a 10% (w/v) polyacrylamide gel and electroblotted to a nitrocellulose membrane. Equal protein loading and transfer was confirmed by staining the membrane with Ponceau Red [0.2% (w/v) in H2O:acetic acid 99∶1]. The membrane was sequentially incubated with antibodies against COX-1 (1∶200, Santa Cruz Biotechnology), COX-2 (1∶500, Santa Cruz Biotechnology), iNOS (1∶400, BD Biosciences) or α-tubulin (1∶100, Santa Cruz Biotechnology) and then with peroxidase-conjugated donkey anti-goat IgG (1∶20000) or donkey anti-rabbit IgG (1∶200, both Santa Cruz Biotechnology). Immunocomplexes were detected by an enhanced chemiluminescence kit (Amersham Bioscience). The membrane was stripped by incubation in 0.2 M NaOH between successive immunodetections. Semi-quantitative scanning densitometry involved use of the ImageJ program (NIH, USA).

[1] = system: COX-1/COX-2 protein ratio; experiment: COX-1/COX-2 protein ratio by scanning densitometry of western blots; format: cell-based, rabbit; details: C8 0.31-1.24 µM in DMEM, IL-1β 20 h
Description: As expected, COX-1 protein was detectable but COX-2 and iNOS proteins were undetectable in untreated control conditions (Fig. 6A). […] Consequently, the protein ratio of COX-1 to COX-2 was not modified by C8 (Fig. 6B). […] Results from one representative experiment in five are shown. (B) Intensities of the COX-1 and COX-2 immunoreactive bands evaluated by semi-quantitative scanning densitometry. Data represent the COX-1/COX-2 protein ratio and are expressed as relative arbitrary units, where the IL-1β-treated group represents 1. Values are means ± SEM (n = 5 independent determinations). No significant differences were found between the groups. […] Cell lysates were centrifuged for 15 min at 14000 rpm at 4°C and supernatants were collected. Protein concentrations were determined by the Bradford method by use of the Protein Assay dye reagent (Bio-Rad). Protein extracts (20 µg) were size-separated by SDS-PAGE in a 10% (w/v) polyacrylamide gel and electroblotted to a nitrocellulose membrane. Equal protein loading and transfer was confirmed by staining the membrane with Ponceau Red [0.2% (w/v) in H2O:acetic acid 99∶1]. […] Immunocomplexes were detected by an enhanced chemiluminescence kit (Amersham Bioscience). […] Semi-quantitative scanning densitometry involved use of the ImageJ program (NIH, USA).

[2] = system: rabbit articular chondrocytes; experiment: MTT cell viability of IL-1β-treated articular chondrocytes; format: cell-based; details: IL-1β 1 ng/mL 20 h
Experimental: We assessed the viability of the chondrocytes by MTT assay to evaluate the cytotoxic effects of C8 on these cells. Chondrocytes were treated for 20 h with 1 ng/mL IL-1β alone or 1 h after the addition of C8 at 0.31 to 9.92 µM, which corresponded to 0.5- to 5-fold the IC50 of C8 on human GIIAPLA2 activity (Table 2). Three different culture medium compositions were used: DMEM alone, or supplemented with 0.1% BSA or 2% FCS. […] Thus, we evaluated the anti-inflammatory activity of C8 in culture conditions from 0.31 to 1.24 µM in DMEM alone and from 0.31 to 4.96 µM in DMEM supplemented with 0.1% BSA or 2% FCS.
Articular chondrocytes were isolated from 5-week-old Fauve de Bourgogne female rabbits (CPA, Orleans, France) and cultured at the first passage in conditions avoiding cell dedifferentiation as previously described. Cells were cultured at 37°C in 12-well plates in Ham's F-12 medium containing 10% FCS, 20 IU/mL penicillin, and 20 µg/mL streptomycin (all from Invitrogen) until nearly confluent. Then medium was replaced with DMEM (Invitrogen) containing 20 IU/mL penicillin, and 20 µg/mL streptomycin and, if necessary, 0.1% fatty acid free BSA (Sigma) or 2% FCS. At this time the C8 compound dissolved in DMSO (Sigma) was added to the medium (the amount of DMSO was kept at 1‰ (v/v) in all the wells). 1 h after the addition of C8, IL-1β (PeproTech) was added to the medium. Consequently, chondrocytes were incubated for 20 h with IL-1β and for 21 h with C8.
At 18 h after the addition of IL-1β, 3-[4,5-dimethylthiazol-2-yl]-2,5-diphenyl tetrazolium bromide (MTT; Sigma) was added to the cell culture medium at 0.5 mg/mL. Cells were incubated 2 more hours at 37°C. The medium was then removed, and DMSO was added to dissolve the formazan crystals. The absorbance of the resulting solution was spectrophotometrically measured at 570 and 690 nm (background). The value corresponding to absorbance570nm - absorbance690nm was directly proportional to the number and activity of the viable cells.

O=c1[nH]c(Cc2ccc(OCCCCCOc3cc4ccccc4c4ccccc34)cc2)no1 [C8]
effect on iNOS protein level (iNOS): did not alter | effect on protein ratio of COX-1 to COX-2 [1]: not modified | cytotoxic effects (MTT) ([2]; DMEM alone, C8 at 0.31 to 2.48 µM): no cytotoxic effects | cytotoxic effects (MTT) ([2]; DMEM with 0.1% BSA, C8 at 0.31 to 9.92 µM): no cytotoxic effects; also recorded: did not decrease cell viability | cytotoxic effects (MTT) ([2]; DMEM with 2% FCS, C8 at 0.31 to 9.92 µM): no cytotoxic effects; also recorded: did not decrease cell viability
